Test results reported in paper PMC6471591, “Preparation of Sesquiterpene Lactone Derivatives: Cytotoxic Activity and Selectivity of Action” (Molecules, 2019).

Tests used:
A549 cells [1] = experiment: Antiproliferative SRB assay (NCI protocol), 48 h; assay type: cell-based; settings: Homo sapiens; A549 (lung), SRB, 48 h drug exposure; read-out: 50% growth inhibition (GI50) ± SD, A549
Procedure: (§1) In vitro antiproliferative activity was evaluated using the protocol of the National Cancer Institute (NCI) after 48 h of drug exposure using the sulforhodamine B (SRB) assay. […] We cannot discard that increasing lipophilicity may well result in an increase in cytotoxicity in vitro.
(§2) The following human solid tumor cell lines were used in this study: HBL-100 (breast), HeLa (cervix), SW1573 (non-small cell lung), T-47D (breast), A549 (lung), and WiDr (colon). Cells were maintained in 25 cm^2 culture flasks in RPMI 1640 supplemented with 5% heat-inactivated fetal calf serum and 2 mM L-glutamine in a 37 °C, 5% CO2, 95% humidified air incubator. Exponentially growing cells were trypsinized and resuspended in antibiotic containing medium (100 units penicillin G and 0.1 mg of streptomycin per mL). Single-cell suspensions displaying >97% viability by trypan blue dye exclusion test were subsequently counted. After counting, dilutions were made to give the appropriate cell densities for inoculation onto 96-well microtiter plates. Cells were inoculated in a volume of 100 μL per well at densities of 20,000 (WiDr), 15,000 (T-47D and A549), and 10,000 (HeLa, SW1573, and HBL-100) cells per well, based on their doubling times.
(§3) Chemosensitivity tests were performed using the SRB assay of the NCI with slight modifications. Briefly, pure compounds were initially dissolved in DMSO at 400 times the desired final maximum test concentration. Control cells were exposed to an equivalent concentration of DMSO (0.25% v/v, negative control). Each agent was tested in triplicate at different dilutions in the range 1–100 μM. Drug treatment started on day 1 after plating. Drug incubation periods were 48 h, after which cells were precipitated with 25 μL of ice-cold 50% (w/v) trichloroacetic acid and fixed for 60 min at 4 °C. Then, the SRB assay was performed. Optical density (OD) of each well was measured at 492 nm, using BioTek’s PowerWave XS Absorbance Microplate Reader (Highland Park, Winooski, VT, USA). Values were corrected for background OD from wells containing only culture medium. The percentage growth (PG) was calculated with respect to untreated control cells (C) at each level of drug concentrations based on the difference in OD at the start time (T0) and at the end of drug exposure (T), according to NCI formulas. Therefore, if T is greater than or equal to T0, the calculation is 100 × [(T–T0)/(C–T0)]. If T is lower than T0, denoting cell death, the calculation is 100 × [(T–T0)/(T0)]. The effect is defined as the growth percentage, where 50% growth inhibition (GI50) represents the concentration at which PG is +50. Based on these calculations, a PG value of 0 corresponds to the number of cells present at the beginning of drug exposure, while negative PG values denote net cell death.

HBL100 cells [2] = experiment: Antiproliferative SRB assay (NCI protocol), 48 h; assay type: cell-based; settings: Homo sapiens, HBL-100; HBL100 (breast), SRB, 48 h drug exposure; read-out: 50% growth inhibition (GI50) ± SD, HBL100
Procedure: as §1, §2, §3

HeLa cells [3] = experiment: Antiproliferative SRB assay (NCI protocol), 48 h; assay type: cell-based; settings: Homo sapiens; HeLa (cervix), SRB, 48 h drug exposure; read-out: 50% growth inhibition (GI50) ± SD, HeLa
Procedure: as §1, §2, §3

SW1573 cells = experiment: Antiproliferative SRB assay (NCI protocol), 48 h; assay type: cell-based, human; settings: for GI50: Homo sapiens, SW1573 (non-small cell lung), SRB, 48 h drug exposure, read-out: 50% growth inhibition (GI50) ± SD, SW1573; for Selectivity Index, SW1573: splenocyte CC50 versus SW1573 GI50
Procedure: as §1, §2, §3

T47-D cells = experiment: Antiproliferative SRB assay (NCI protocol), 48 h; assay type: cell-based, human; settings: for GI50: Homo sapiens, T47D, T47-D (breast), SRB, 48 h drug exposure, read-out: 50% growth inhibition (GI50) ± SD, T47-D; for Selectivity Index, T47-D: splenocyte CC50 versus T47-D GI50
Procedure: as §1, §2, §3

WiDr cells = experiment: Antiproliferative SRB assay (NCI protocol), 48 h; assay type: cell-based, human; settings: for GI50: Homo sapiens, WiDr (colon), SRB, 48 h drug exposure, read-out: 50% growth inhibition (GI50) ± SD, WiDr; for Selectivity Index, WiDr: splenocyte CC50 versus WiDr GI50
Procedure: as §1, §2, §3

[4] = Cytotoxicity on primary cell culture (propidium iodide, flow cytometry); assay type: cell-based; settings: for CC50 at 48 h: Balb/c, mouse
Procedure: The cytotoxicity of the sesquiterpene lactones and its derivatives was evaluated using mouse splenocytes. […] Cumanin derivatives (4–11) have shown CC50 values and selectivity indexes higher than natural compound 1. […] The incorporation of two triazole groups in cumanin (1) reduced cytotoxicity on normal cells and improved selectivity against tumor cell lines.
In a 96-well plate, spleen cells from Balb/c mouse (1.5 × 10^5) were incubated with different drug dilutions (200, 100, 50, 10, and 5 μg/mL) in RPMI medium containing 10% fetal calf serum. After 48 h of incubation at 37 °C (5% CO2), cells were harvested, washed once with PBS, and stained with 2.5 μg/mL propidium iodide (PI) for 5 min at room temperature. Subsequently, cell death was assessed by flow cytometry using a BD FACSaria II cytometer. Cells incubated only with a drug vehicle were used as a 100% viability control and death percentage was calculated according to the following formula: Death(%)=[1−(%PI^−cells)drug−treated/(%PI^−cells)100% viability control]×100.
Then the concentration capable of causing cell death in 50% of splenocytes (CC50) was determined using a non-linear regression approach.

A549 cells [5] = experiment: Antiproliferative SRB assay (NCI protocol), 48 h; assay type: cell-based, human; settings: splenocyte CC50 versus A549 GI50
HBL100 cells [6] = experiment: Antiproliferative SRB assay (NCI protocol), 48 h; assay type: cell-based, human; settings: splenocyte CC50 versus HBL100 GI50
HeLa cells [7] = experiment: Antiproliferative SRB assay (NCI protocol), 48 h; assay type: cell-based, human; settings: splenocyte CC50 versus HeLa GI50

Compound	GI50 (A549 cells [1]) [µM]	GI50 (HBL100 cells [2]) [µM]	GI50 (HeLa cells [3]) [µM]	GI50 (SW1573 cells) [µM]	Selectivity Index, SW1573 (SW1573 cells)	GI50 (T47-D cells) [µM]	Selectivity Index, T47-D (T47-D cells)	GI50 (WiDr cells) [µM]	Selectivity Index, WiDr (WiDr cells)	CC50 at 48 h [4] [µM]	Selectivity Index, A549 (A549 cells [5])	Selectivity Index, HBL100 (HBL100 cells [6])	Selectivity Index, HeLa (HeLa cells [7])	CC50 ([4]; Balb/c mouse spleen cells, 48 h incubation, PI staining, read-out: CC50 ± SD, splenocytes (concentration that causes 50% cell death)) [nM]
C=C1C(=O)O[C@@H]2C[C@H](C)[C@@H]3C[C@H](O[Si](C)(C)C(C)C)[C@H](O[Si](C)(C)C(C)C)[C@@]3(C)C[C@H]12 [Compound 6]	1.2	2.3	1.3	1.2	76.5	2.2	41.7	2.4	38.2	91.8	76.5	39.9	70.6	
C=C1C(=O)O[C@@H]2[C@H]1CC[C@H](C)[C@@]1(O[Si](C)(C)C)C=CC(=O)[C@@]21C [Compound 15]	3.4	4.6	3.3	2.4	0.9	4.2	0.5	6.8	0.3	2.3	0.7	0.5	0.7	
C=C1C(=O)OC2CC(C)C3CC(O)C(O)C3(C)CC12 (stereo not drawn) [Compound 1, cumanin]	19	21	19	14	2.1	30	1.0	36	0.8		1.5	1.4	1.5	
C=C1C(=O)O[C@@H]2C[C@@H](C)[C@@H]3C=CC(=O)[C@@]3(C)[C@@H](OC(C)=O)[C@H]12 [Compound 12]		3.6		4.7	0.1	1.6	0.2					0.1		400
